Data taken from paper PMC8821551, “Binding of cationic analogues of α-MSH to lipopolysaccharide and disruption of the cytoplasmic membranes caused bactericidal action against Escherichia coli” (Scientific Reports, 2022).

Columns and labels:
[1] = test system: LPS from E. coli O55:B5; experiment: LPS binding assay (BODIPY-TR-cadaverine displacement); parameters: species or system Escherichia coli; details: BC displacement, LPS 50 μg/mL, 5 µM BC, 50 mM Tris buffer pH 7.4, peptide 0.25 to 20 µM, Hill equation fit, mean Kd ± SD of two independent experiments, read-out: Kd (dissociation constant) with LPS
Protocol: The binding of α-MSH and its analogues to LPS was checked using BODIPY-TR-cadaverine (BC) as a fluorescent probe[24],[42]. BC fluorescence decreases when bound to cell-free LPS and increases when it is freely accessible in solution. LPS (50 μg/mL) from E. coli O55:B5 (Sigma-Aldrich, India) was incubated with 5 µM of BC in 50 mM Tris buffer (pH 7.4) for 4 h. Next, 800 µL of this LPS-BC mixture was added to varying concentrations (0.25 µM to 20 µM) of the peptides in a quartz cuvette, and the BC fluorescence was measured on a spectrofluorimeter (Shimadzu RF-5301 PC) with excitation at 580 nm and emission at 620 nm. Each experiment was done in duplicate independently. Increase in fluorescence intensities with increase in concentration of peptides were plotted and the dissociation constant (Kd) was calculated from each individual data set and is presented as mean value ± SD using Igor Pro 6.36 (Y = Bmax × Xˆh/(Kdˆh + Xˆh); where X: concentration of peptide (µM), Y: fluorescence intensity (a.u.), h: Hill slope)[43]. The molecular mass of LPS was taken as 20,000 Da as described elsewhere, and its concentration was calculated accordingly.
Table S1: The dissociation constant (Kd) of α-MSH and its analogues with LPS. […]

[2] = test system: E. coli outer membrane; experiment: Outer membrane permeabilization assay (NPN uptake); assay type: cell-based, Escherichia coli; details: relative to 10 µM polymyxin B = 100%; for %NPN uptake: 10^8 CFU/mL mid-log cells, 10 μM NPN
Protocol: The outer membrane permeabilization assay was done as described in the literature with slight modifications. Briefly, bacterial cells were grown to mid-log phase in LB medium, washed and diluted to 10^8 CFU/mL in HEPES-glucose buffer. Next, this bacterial suspension was treated with 10 μM NPN probe and subsequently challenged with increasing concentrations of peptides (1 µM to 20 µM). Changes in the fluorescence intensity of NPN were measured with the help of Shimadzu RF-5301 PC spectrofluorimeter (excitation at 350 nm and emission at 420 nm). Increased intensity of emission resulted from the damage to the bacterial outer membrane and was measured until no further increase in fluorescence was observed. NPN uptake was calculated using the following formula: %NPNuptake=Fobs-F0/F100-F0×100 where Fobs is the NPN fluorescence intensity after the peptide treatment, F0 is the NPN fluorescence with untreated E. coli cells, and F100 is the NPN fluorescence in the presence of 10 µM polymyxin B (a positive control).

[3] = test system: E. coli ATCC 25922; experiment: Killing assay (killing kinetics), logarithmic phase cells; assay type: cell-based, Escherichia coli; details: logarithmic phase, 10^5 CFU/mL; for log reduction in cell viability: HEPES-glucose buffer pH 7.4, 37 °C, average ± SE, three independent experiments, SEM; for killing activity (decrease in cell viability), in words: low concentrations 1 µM and 2 µM, up to 2 h
Protocol: (§1) For this study, a well-characterized strain of E. coli (ATCC 25922) was used. The strain was stored at − 80 °C in 15% (v/v) glycerol until sub-cultured onto LB agar plates for use.
(§2) The antibacterial activity of α-MSH and its cationic analogues was determined against both logarithmic (2–3 h) and stationary (16–18 h) phase of E. coli cells in LB medium. The bacterial suspension was pelleted, washed, and diluted in HEPES-glucose buffer (5 mM HEPES, 20 mM glucose, pH 7.4) to adjust the cell density by measuring the OD = 0.5 (10^8 CFU/mL) at 600 nm using a spectrophotometer. This suspension was used to obtain the desired inoculum sizes (10^5 CFU/mL, 10^6 CFU/mL, and 10^7 CFU/mL). The inoculums were exposed to various concentrations of peptides (1 µM, 2 µM, 5 µM, and 10 µM) and incubated at 37 °C. Untreated E. coli cells were also included as a control. At selected time points (0 min, 15 min, 30 min, 60 min, and 120 min), aliquots were taken out, and survival of E. coli cells was determined by quantitative plating on LB agar after appropriate dilution in the same buffer. The plates were incubated overnight at 37 °C, followed by colony counting. Each experiment was performed at least three times on three independent days.

[4] = test system: stationary phase E. coli cells; experiment: Killing assay, stationary phase cells; assay type: cell-based, Escherichia coli; details: 10^5 CFU/mL, HEPES-glucose buffer, 37 °C, peptide 10 µM, 1 h, mean ± SE, three independent days, SEM
Protocol: as §1, §2

[5] = test system: dye-loaded E. coli cells; experiment: Viability of DiSC3(5) dye-loaded cells by plating; assay type: cell-based, Escherichia coli; details: dye-loaded cells 10^6, HEPES-glucose buffer, two different days
Protocol: The membrane depolarization of E. coli cells was determined using a potentiometric fluorescent probe DiSC3(5), as described elsewhere. Briefly, mid-log phase E. coli cells were diluted to 10^6 CFU/mL in the same HEPES-glucose buffer and were incubated with DiSC3(5) and EDTA at 0.4 µM and 0.2 mM concentrations, respectively, for 1 h in the dark at 37 °C, till the maximum uptake of the probe occurred. Increasing concentrations of the studied peptides from 1 µM to 10 µM were then added to these dye-loaded cells in a quartz cuvette, and the fluorescence intensity was measured on spectrofluorimeter (Shimadzu RF-5301 PC) set as excitation at 622 nm and emission at 670 nm. The increase in fluorescence intensity accounted for the dissipation of membrane potential caused due to peptide treatment. Cells treated with 10 µM melittin were used as a positive control. Simultaneously, the dye-loaded cells were plated onto LB agar to estimate bacterial cell death.
Figure S1: Survival of dye-loaded cells (10^6) treated with various concentrations of peptides that correspond to the inner membrane depolarization. The dye-loaded E. coli cells suspended in HEPES-glucose buffer ([…]) were incubated with different concentration of α-MSH and its analogues for 2 minutes and further diluted in the same buffer and plated on LB agar plates. The plates were further incubated at 37 °C for 16 h. Next day the colonies were counted.^1 The experiment was performed on two different days and the representative values (mean ± SE) are shown in graph. (⁎, P < 0.05; ⁎⁎, P < 0.01, compared to that of control at the same concentration).

[6] = test system: E. coli cells; experiment: Membrane permeabilization assay (PI uptake, flow cytometry); assay type: cell-based, Escherichia coli; details: span over rising peptide concentrations; 10^6 CFU/mL mid-log cells, PI 1.3 µg/mL, 37 °C, 1 h, flow cytometry; three independent days
Protocol: Membrane permeabilization of E. coli cells was determined via propidium iodide (PI) uptake assay through flow cytometry as described previously with slight modifications. Briefly, mid-log phase E. coli cells were adjusted to 10^6 CFU/mL in the HEPES-glucose buffer. Next, cells were incubated with propidium iodide (PI) at 1.3 µg/mL concentration for 30 min in the dark. After incubation, PI-loaded cells were treated with a range of peptide concentrations, i.e., 1 µM, 2 µM, 5 µM, and 10 µM, at 37 °C for 1 h, and PI fluorescence intensity was measured through Becton Dickinson (BD) FACS verse (San Jose, CA) flow cytometer using excitation at 544 nm and emission at 620 nm.
Figure S2: Histograms of E. coli cells treated with 2 µM concentration of α-MSH and its analogues and 1 µM concentration of polymyxin B for 1 h. Towards monitoring the membrane permeabilizations of E. coli cells, propidium iodide (PI) uptake assay through flow cytometry was performed using the previously standardized method with mild modifications ^2. Briefly, mid-log phase grown E. coli cells (10^6 CFU/mL) suspended in the HEPES-glucose buffer were incubated with propidium iodide (PI) at a concentration of 1.3 µg/mL for 30 min in dark. After incubation, PI loaded cells were treated with a range of peptide concentrations; 1 µM, 2 µM, 5 µM and 10 µM at 37 °C for 1 h, and PI fluorescence intensity was measured through Becton Dickinson (BD) FACS verse (San Jose, CA) flow cytometer using excitation at 544 nm and emission at 620 nm.

[7] = peptide 10 µM, 2 min of exposure

Compound	Kd [1] [nM]	%NPN uptake ([2]; peptide 1 μM, HEPES-glucose buffer, average of three independent days) [%]	%NPN uptake ([2]; peptide 20 μM (highest concentration)) [%]	log reduction in cell viability ([3]; peptide 5 µM, 2 h) [log]	log reduction in cell viability ([3]; peptide 10 µM, 2 h) [log]	killing activity (decrease in cell viability), in words [3]	log reduction in cell viability [4] [log]	log reduction in cell viability of dye-loaded cells ([5]; peptide 5 µM, 2 min exposure) [log]	log reduction in cell viability of dye-loaded cells [5, 7] [log]	maximum NPN uptake ([2]; over peptide concentrations from 1 to 20 μM) [%]	log reduction in cell viability ([3]; peptide 10 µM, 1 h) [log]	change of killing activity at 5 µM against lower concentrations, in words ([3]; peptide 5 µM)	PI positive cells [6]
polymyxin B [reference compound]	2400 ± 840	–	–	–	–	–	–	–	–	–	–	–	–
CSCC[C@H](NC(=O)[C@H](CCCCN)NC(=O)[C@H](Cc1ccc(O)cc1)NC(=O)[C@H](CCCCN)NC(C)=O)C(=O)N[C@@H](CCC(=O)O)C(=O)N[C@@H](Cc1c[nH]cn1)C(=O)N[C@@H](Cc1ccccc1)C(=O)N[C@@H](CCCNC(=N)N)C(=O)N[C@@H](Cc1c[nH]c2ccccc12)C(=O)NCC(=O)N[C@@H](CCCCN)C(=O)N1CCC[C@H]1C(=O)N[C@H](C(N)=O)C(C)C [KK-MSH]	–	6.8	37.7	1.7 ± 0.4	2.6 ± 0.5	very slight decrease in the cell viability	1.8 ± 0.05	0.5	1.2	–	–	–	–
CSCC[C@H](NC(=O)[C@H](CO)NC(=O)[C@H](Cc1ccc(O)cc1)NC(=O)[C@H](CCCCN)NC(C)=O)C(=O)N[C@@H](CCC(=O)O)C(=O)N[C@@H](Cc1c[nH]cn1)C(=O)N[C@@H](Cc1ccccc1)C(=O)N[C@@H](CCCNC(=N)N)C(=O)N[C@@H](Cc1c[nH]c2ccccc12)C(=O)NCC(=O)N[C@@H](CCCCN)C(=O)N1CCC[C@H]1C(=O)N[C@H](C(N)=O)C(C)C [K-MSH]	–	–	–	–	–	very slight decrease in the cell viability	1.7 ± 0.3	0.7	0.6	16.2	1.9 ± 0.3	marginal increase in activity	21.8–26.5%
